Results published in paper PMC4865847, “Putative histidine kinase inhibitors with antibacterial effect against multi-drug resistant clinical isolates identified by in vitro and in silico screens” (Scientific Reports, 2016).
Values after ≈ are worked out from the molar mass of the structure shown. Like-named read-outs stand apart in the source and are kept apart here.

Assays:
S. aureus PhoR (PhoR^S) = S. aureus PhoR (PhoR^S) (Staphylococcus aureus, UniProt Q2FXN7); assay: In vitro autophosphorylation kinase assay with γ-32P-ATP, PhoR^S; type: biochemical; settings: autophosphorylation, one time point (30 sec), 10% DMSO
Procedure: (§1) To evaluate the inhibitory capacity of selected hits from DSF, SBVS and LBSS in vitro autophosphorylation kinase assays with γ-^32P-ATP were performed as previously described. Ligands were dissolved in 100% DMSO. […] Controls lacking ligands contained an equal concentration of DMSO. Inhibition of autophosphorylation was determined by incubating 0.12 mg/ml (≈4 μM) HK and up to 20 mM fragment in kinase buffer (50 mM Tris HCl, pH 8.5, 50 mM KCl, 5 mM MgCl2, 0.5 mM EDTA and 0.1 mM DTT). Autophosporylation reactions were initiated by addition of 0.1 μCi/μl γ-^32P-ATP containing from 0.03 to 0.06 μM ATP (final concentrations). Autophosphorylation was quenched with 2xSDS-PAGE sample buffer supplemented with 50 mM EDTA. Samples were applied without heating to 15% (w/v) Tris-glycine SDS-polyacrylamide gels. After electrophoresis, the bottoms of the gels were removed to lower the background from the unincorporated radiolabeled ATP. Gels were dried without staining on a Bio-Rad Gel Air drying system and the phosphorylated protein was quantified by phosphor-imaging. Prism GraphPad was used for curve fitting and statistical analysis.

E. coli PhoR (PhoR^E) = molecular target: T1, E. coli PhoR (PhoR^E) (Escherichia coli, UniProt P08400); assay: In vitro autophosphorylation kinase assay with γ-32P-ATP, PhoR^E; type: biochemical; settings: for IC50: autophosphorylation, one time point (30 sec), 10% DMSO
T1 construct: The catalytic portion (DHp and CA domain) of E. coli PhoR (PhoR^E); made in house; host or cells: E. coli RIL
Procedure: as §1, with “Samples were applied without heating to 15% (w/v) Tris-glycine SDS-polyacrylamide gels.” left out

T. maritima HK853 = molecular target: T2, T. maritima HK853 (Thermotoga maritima, UniProt Q9WZV7); assay: In vitro autophosphorylation kinase assay with γ-32P-ATP, HK853; type: biochemical
T2 sequence (Q9WZV7 232-489): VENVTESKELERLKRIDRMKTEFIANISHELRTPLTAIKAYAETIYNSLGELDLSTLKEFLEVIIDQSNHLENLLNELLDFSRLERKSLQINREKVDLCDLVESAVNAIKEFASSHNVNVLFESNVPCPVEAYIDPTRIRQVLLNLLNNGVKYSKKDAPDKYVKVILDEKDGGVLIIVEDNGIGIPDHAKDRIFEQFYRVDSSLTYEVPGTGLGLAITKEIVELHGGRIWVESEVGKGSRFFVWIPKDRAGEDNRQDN
Procedure: as §1

S. pneumoniae WalK = molecular target: T3, S. pneumoniae WalK (Streptococcus pneumoniae, UniProt Q8DPL8); assay: In vitro autophosphorylation kinase assay with γ-32P-ATP, WalK; type: biochemical; settings: autophosphorylation, one time point (30 sec), 10% DMSO
T3 construct: WalK (amino acids from 208 to 449); N-terminal His6-3C site of vector pOPINF (own knowledge of the vector); made in house; host or cells: E. coli RIL
Procedure: as §1, with “Samples were applied without heating to 15% (w/v) Tris-glycine SDS-polyacrylamide gels.” left out

Staphylococcus aureus = assay: Antibacterial susceptibility testing (MIC/MBC), S. aureus; type: cell-based
Procedure: (§2) Minimal inhibitory concentrations (MICs) were determined following a standard double-dilution method. […] For S. pneumoniae MICs were determined by adapting the standard double-dilution method to anaerobic conditions and of this microorganism (use of Todd Hewitt Yeast extract with 200 U/mL of catalase and continuous monitoring of growth).

[1] = tested on: Staphylococcus epidermidis; assay: Antibacterial susceptibility testing (MIC/MBC), S. epidermidis; type: cell-based
Procedure: as §2

Escherichia coli = assay: Antibacterial susceptibility testing (MIC/MBC), E. coli; type: cell-based; settings: Escherichia coli
Procedure: as §2

Streptococcus suis = assay: Antibacterial susceptibility testing (MIC), S. suis; type: cell-based
Procedure: (§3) Bacterial strains used in this study for antibacterial susceptibility testing (Table S5) were propagated using standard microbiological procedures. Minimal inhibitory concentrations (MICs) were determined following a standard double-dilution method. MICs were recorded as the lowest concentration of the compound where no visible growth was observed. After plating the dilutions around the MIC or growing them in fresh MH media, minimal bactericidal concentration (MBC) was recorded as the lowest concentration of the compound at which no colonies were formed or no growth was observed, respectively. For S. pneumoniae MICs were determined by adapting the standard double-dilution method to anaerobic conditions and of this microorganism (use of Todd Hewitt Yeast extract with 200 U/mL of catalase and continuous monitoring of growth).

Acinetobacter baumannii = assay: Antibacterial susceptibility testing (MIC), A. baumannii; type: cell-based; settings: MDR clinical isolate NM8, read-out: MIC A. baumannii NM8
Procedure: as §3

[2] = tested on: Stenotrophomonas maltophilia; assay: Antibacterial susceptibility testing (MIC), S. maltophilia; type: cell-based; settings: clinical isolate B32/1, read-out: MIC S. maltophilia B32/1
Procedure: as §3

Klebsiella pneumoniae = assay: Antibacterial susceptibility testing (MIC), K. pneumoniae; type: cell-based; settings: Klebsiella pneumoniae, ATCC700603, strain ATCC 700603
Procedure: as §3

Pseudomonas aeruginosa = assay: Antibacterial susceptibility testing (MIC), P. aeruginosa; type: cell-based; settings: Pseudomonas aeruginosa, ATCC27853; strain ATCC 27853
Procedure: as §3

Hemolysis assay = type: cell-based; settings: human
Procedure: Hemolytic activity against human erythrocytes taken from a healthy donor was measured as previously described. The hemolysis experiments were carried out in accordance with the guidelines of the United Arab Emirates University (UAEU) Research Ethics Review Board. All experimental protocols were approved by the Research Ethics Review Board of UAEU and informed consent was obtained from all donors.

[3] = Solubility in kinase buffer; type: physicochemical; settings: kinase buffer in the presence of 10% DMSO
[4] = Staphylococcus aureus, DSM20231, strain DSM 20231, read-out: MIC S. aureus DSM 20231
[5] = Staphylococcus epidermidis, DSM20044, strain DSM 20044, read-out: MIC S. epidermidis DSM 20044
[6] = strain CFT 073, read-out: MIC E. coli CFT 073

T1 sequence (P08400 210-425): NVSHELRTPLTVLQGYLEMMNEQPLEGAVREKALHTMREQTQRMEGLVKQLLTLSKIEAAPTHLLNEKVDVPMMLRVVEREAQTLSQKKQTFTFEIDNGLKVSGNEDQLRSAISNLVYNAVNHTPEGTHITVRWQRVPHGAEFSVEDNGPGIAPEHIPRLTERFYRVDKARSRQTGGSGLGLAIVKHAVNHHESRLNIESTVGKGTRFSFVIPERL
Chain of S. aureus PhoR (PhoR^S) (Q2FXN7 entry or part of it): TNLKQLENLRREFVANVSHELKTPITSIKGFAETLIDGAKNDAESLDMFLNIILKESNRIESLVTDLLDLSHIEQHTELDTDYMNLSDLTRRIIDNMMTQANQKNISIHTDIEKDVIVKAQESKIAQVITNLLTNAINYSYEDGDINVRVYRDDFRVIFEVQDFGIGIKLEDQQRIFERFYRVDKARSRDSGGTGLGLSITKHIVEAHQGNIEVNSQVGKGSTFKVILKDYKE
T3 sequence (Q8DPL8 208-449): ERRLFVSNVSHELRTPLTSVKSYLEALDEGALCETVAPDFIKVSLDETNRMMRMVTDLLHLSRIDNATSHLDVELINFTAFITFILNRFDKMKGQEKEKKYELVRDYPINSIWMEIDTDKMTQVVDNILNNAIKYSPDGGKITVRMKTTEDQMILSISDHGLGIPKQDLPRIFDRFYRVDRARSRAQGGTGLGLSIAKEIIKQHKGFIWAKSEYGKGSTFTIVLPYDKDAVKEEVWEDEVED

O=C(CCN1c2ccccc2Sc2ccccc21)OCc1cc(=O)n2ccsc2n1 [S1]
IC50 (S. aureus PhoR (PhoR^S); IC50 PhoR^S): > 5 mM
IC50 (E. coli PhoR (PhoR^E); IC50 PhoR^E): > 5 mM
IC50 (T. maritima HK853): > 5 mM
IC50 (S. pneumoniae WalK; IC50 WalK): > 5 mM
MIC (Staphylococcus aureus; [4]): > 500 µg/mL
MIC [1, 5]: > 500 µg/mL
MIC (Escherichia coli; [6]): > 500 µg/mL

CC(NCc1cccc2ccccc12)c1cccc(F)c1 (centres unmarked) [S9]
IC50 (S. aureus PhoR (PhoR^S); IC50 PhoR^S): > 5 mM
IC50 (E. coli PhoR (PhoR^E); IC50 PhoR^E): > 5 mM
IC50 (T. maritima HK853): > 5 mM
IC50 (S. pneumoniae WalK; IC50 WalK): > 5 mM
MIC (Staphylococcus aureus; [4]): > 500 µg/mL
MIC [1, 5]: > 500 µg/mL
MIC (Escherichia coli; [6]): > 500 µg/mL

CC(NCc1cccc2ccccc12)c1ccc(F)cc1 (centres unmarked) [S8]
IC50 (S. aureus PhoR (PhoR^S); read-out: IC50 PhoR^S): < 5 mM
IC50 (E. coli PhoR (PhoR^E); IC50 PhoR^E): > 5 mM
IC50 (T. maritima HK853): > 5 mM
IC50 (S. pneumoniae WalK; IC50 WalK): > 5 mM
MIC (Staphylococcus aureus; [4]): > 500 µg/mL
MIC [1, 5]: > 500 µg/mL
MIC (Escherichia coli; [6]): > 500 µg/mL

c1ccc2cc(CNc3ccc4c(c3)OCCO4)ccc2c1 [S7]
IC50 (S. aureus PhoR (PhoR^S); read-out: IC50 PhoR^S): < 5 mM
IC50 (E. coli PhoR (PhoR^E); IC50 PhoR^E): > 5 mM
IC50 (T. maritima HK853): > 5 mM
IC50 (S. pneumoniae WalK; IC50 WalK): > 5 mM
MIC (Staphylococcus aureus; [4]): > 500 µg/mL
MBC S. aureus DSM 20231 (Staphylococcus aureus; strain DSM 20231): > 500 µg/mL
MIC [1, 5]: > 500 µg/mL
MIC (Escherichia coli; [6]): > 500 µg/mL

Oc1cccc2[nH]c3ccccc3c12 [F2.8]
inhibition at 2000 µM (E. coli PhoR (PhoR^E); 2 mM, 30 sec, compared to negative control): > 50%
IC50 (E. coli PhoR (PhoR^E); read-out: IC50 PhoR^E): 0.72 mM
IC50 (S. pneumoniae WalK; read-out: IC50 WalK): > 2 mM
MIC (Staphylococcus aureus; Staphylococcus aureus, ATCC reference strain 25293, read-out: MIC S. aureus 25293): 250 µg/mL (≈ 1360 µM)
MBC (Staphylococcus aureus; Staphylococcus aureus, DSM20231, strain DSM 20231, read-out: MBC S. aureus DSM 20231): 63 µg/mL (≈ 344 µM)
MIC (Staphylococcus aureus; [4]): 31 to 250 µg/mL (≈ 169 to 1360 µM)
MIC (Staphylococcus aureus; Staphylococcus aureus, MRSA clinical isolate 127/08, read-out: MIC S. aureus 127/08): 250 µg/mL (≈ 1360 µM)
MIC (Staphylococcus aureus; Staphylococcus aureus, MRSA clinical isolate 145/08, read-out: MIC S. aureus 145/08): 250 µg/mL (≈ 1360 µM)
MIC (Staphylococcus aureus; Staphylococcus aureus, MRSA clinical isolate 274/08, read-out: MIC S. aureus 274/08): 250 µg/mL (≈ 1360 µM)
MIC (Staphylococcus aureus; Staphylococcus aureus, MRSA, MRSA clinical isolate T4/6, read-out: MIC S. aureus T4/6): 250 µg/mL (≈ 1360 µM)
MIC (Staphylococcus aureus; Staphylococcus aureus, MRSA, MRSA clinical isolate V4180, read-out: MIC S. aureus V4180): 250 µg/mL (≈ 1360 µM)
MIC (Staphylococcus aureus; Staphylococcus aureus, MRSA, summary over strains, read-out: MICs for the MRSA strains and S. aureus 25293): 125 to 500 µg/mL (≈ 682 to 2730 µM)
MIC S. aureus DSM 20231 (Staphylococcus aureus; strain DSM 20231): 31 µg/mL (≈ 169 µM)
MBC ([1]; Staphylococcus epidermidis, DSM20044, strain DSM 20044): 250 µg/mL (≈ 1360 µM)
MIC [1, 5]: 31 to 500 µg/mL (≈ 169 to 2730 µM)
MIC ([1]; Staphylococcus epidermidis, clinical isolate T7/3, read-out: MIC S. epidermidis T7/3): 63 µg/mL (≈ 344 µM)
MIC ([1]; Staphylococcus epidermidis, clinical isolate T37/8, read-out: MIC S. epidermidis T37/8): 250 µg/mL (≈ 1360 µM)
MIC ([1]; Staphylococcus epidermidis, clinical isolate T6119, read-out: MIC S. epidermidis T6119): 250 µg/mL (≈ 1360 µM)
MIC ([1]; Staphylococcus epidermidis, strain RP62A (biofilm producer), read-out: MIC S. epidermidis RP62A): 250 µg/mL (≈ 1360 µM)
MIC ([1]; Staphylococcus epidermidis, strain RP62A/1 (non-biofilm producer), read-out: MIC S. epidermidis RP62A/1): 250 µg/mL (≈ 1360 µM)
MIC ([1]; Staphylococcus epidermidis, summary over strains, read-out: MICs for the S. epidermidis strains): 31 to 250 µg/mL (≈ 169 to 1360 µM)
MIC S. epidermidis DSM 20044 ([1]; strain DSM 20044): 31 µg/mL (≈ 169 µM)
MIC (Escherichia coli; ATCC25276, strain ATCC 25276, read-out: MIC E. coli ATCC 25276): 500 µg/mL (≈ 2730 µM)
MBC (Escherichia coli; strain CFT 073, read-out: MBC E. coli CFT 073): 500 µg/mL (≈ 2730 µM)
MIC (Escherichia coli; summary over E. coli strains, read-out: antibacterial effects (MIC) against E. coli): ≥ 63 µg/mL
MIC (Streptococcus suis; Streptococcus suis, read-out: MIC Streptococcus suis 3881/S10, strain 3881/S10): 250 µg/mL (≈ 1360 µM)
MIC Streptococcus suis 3881/S10 (Streptococcus suis; strain 3881/S10): 125 µg/mL (≈ 682 µM)
MIC (Acinetobacter baumannii): > 500 µg/mL
MIC [2]: > 500 µg/mL
MIC (Klebsiella pneumoniae): 250 µg/mL (≈ 1360 µM)
MIC (Pseudomonas aeruginosa): > 500 µg/mL
HC50 (Hemolysis assay): > 500 µg/mL
solubility in kinase buffer [3]: good solubility
